Data taken from ChEMBL document CHEMBL1201862, “PubChem BioAssay data set” (2004).
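48-hour exposure; five concentrations; linearly interpolated endpoints. Abbreviation: GI50, concentration required for 50% inhibition of growth.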 Activity calls are given as the source filed them. No stated cut-off is given here; in the data, active = GI50 up to about 1.1 µM and inactive = higher.

Assays:
Assay in all cases: inhibition of tumour cell growth, NCI panel, 48 h
CAKI-1 = test system: CAKI-1
CCRF-CEM = test system: CCRF-CEM
HT-29 = test system: HT-29
K562 = test system: K562
LOX IMVI = test system: LOX IMVI
NCI-H23 = test system: NCI-H23
NCI-H460 = test system: NCI-H460
NCI-H522 = test system: NCI-H522
NCI/ADR-RES = test system: NCI/ADR-RES
OVCAR-4 = test system: OVCAR-4
PC-3 = test system: PC-3
RPMI-8226 = test system: RPMI-8226
SF-539 = test system: SF-539
SN12C = test system: SN12C
SNB-19 = test system: SNB-19
SNB-75 = test system: SNB-75
T47D = test system: T47D
UACC-257 = test system: UACC-257
A498 = test system: A498
DU-145 = test system: DU-145

Row | SMILES | GI50 (CAKI-1) | GI50 (CCRF-CEM) | GI50 (HT-29) | GI50 (K562) | GI50 (LOX IMVI) | GI50 (NCI-H23) | GI50 (NCI-H460) | GI50 (NCI-H522) | GI50 (NCI/ADR-RES) | GI50 (OVCAR-4) | GI50 (PC-3) | GI50 (RPMI-8226) | GI50 (SF-539) | GI50 (SN12C) | GI50 (SNB-19) | GI50 (SNB-75) | GI50 (T47D) | GI50 (UACC-257) | GI50 (A498) | GI50 (DU-145)
1 | N=c1c2ccccc2nc2oc3cc([N+](=O)[O-])ccc3n12 | 25.4 µM (inactive) | > 100 µM (inactive) | > 100 µM (inactive) | > 100 µM (inactive) | 21 µM (inactive) | 16.6 µM (inactive) | 36.9 µM (inactive) | 32.2 µM (inactive) | 18.6 µM (inactive) | 21.3 µM (inactive) | 54.2 µM (inactive) | > 100 µM (inactive) | 22.3 µM (inactive) | 35.6 µM (inactive) | 24.9 µM (inactive) | 5.61 µM (inactive) | < 0.01 µM (active) | > 100 µM (inactive) | – | –
2 | COc1ccc(Oc2nc(C#CC(C)(C)O)nc(Oc3ccc(OC)cc3)n2)cc1 | 3.67 µM (inactive) | 1.43 µM (inactive) | 3.3 µM (inactive) | 1.67 µM (inactive) | 1.39 µM (inactive) | 7.74 µM (inactive) | 16.7 µM (inactive) | 3.2 µM (inactive) | 18.9 µM (inactive) | 1.79 µM (inactive) | 2.52 µM (inactive) | – | 7.08 µM (inactive) | 13.9 µM (inactive) | 20 µM (inactive) | 15.1 µM (inactive) | 4.53 µM (inactive) | 17.9 µM (inactive) | 17.8 µM (inactive) | 2.62 µM (inactive)
3 | Cc1cc(C)c(/C=C(\C(=C/c2c(C)cc(C)cc2C)[N+](=O)[O-])[N+](=O)[O-])c(C)c1 | > 100 µM (inactive) | 41.6 µM (inactive) | > 100 µM (inactive) | > 100 µM (inactive) | 43.4 µM (inactive) | > 100 µM (inactive) | 46.7 µM (inactive) | – | – | > 100 µM (inactive) | > 100 µM (inactive) | 1.31 µM (inactive) | > 100 µM (inactive) | > 100 µM (inactive) | > 100 µM (inactive) | > 100 µM (inactive) | 78.9 µM (inactive) | > 100 µM (inactive) | – | > 100 µM (inactive)
4 | CN(C)S(=O)(=O)n1cnc(CO)c1 | > 100 µM (inactive) | – | – | > 100 µM (inactive) | > 100 µM (inactive) | > 100 µM (inactive) | > 100 µM (inactive) | > 100 µM (inactive) | > 100 µM (inactive) | > 100 µM (inactive) | > 100 µM (inactive) | > 100 µM (inactive) | > 100 µM (inactive) | > 100 µM (inactive) | > 100 µM (inactive) | > 100 µM (inactive) | > 100 µM (inactive) | > 100 µM (inactive) | > 100 µM (inactive) | –
5 | CCOC(=O)c1c(N)sc2c1CC(C)CC2 (centres undefined) | 49 µM (inactive) | – | 22.4 µM (inactive) | 39.4 µM (inactive) | 42.2 µM (inactive) | 63.7 µM (inactive) | 35.6 µM (inactive) | 18.4 µM (inactive) | 44.3 µM (inactive) | 34.1 µM (inactive) | 29.4 µM (inactive) | 30 µM (inactive) | – | 44.4 µM (inactive) | 31 µM (inactive) | 26.5 µM (inactive) | 32.5 µM (inactive) | 31.2 µM (inactive) | – | 67.5 µM (inactive)
6 | S=c1[nH]nc(COc2ccc3c(c2)CCCC3)n1/N=C/c1ccc(Cl)cc1 | 18.6 µM (inactive) | 32.1 µM (inactive) | – | 17.3 µM (inactive) | 20.2 µM (inactive) | 19.5 µM (inactive) | 15.8 µM (inactive) | 14.1 µM (inactive) | 17.6 µM (inactive) | 18.1 µM (inactive) | 14.9 µM (inactive) | 17.3 µM (inactive) | 17.6 µM (inactive) | 22.8 µM (inactive) | 19.5 µM (inactive) | – | 12.1 µM (inactive) | 22.6 µM (inactive) | – | 15.5 µM (inactive)
7 | O=C(/N=N/c1ccc(Br)cc1)NNc1ccc(Br)cc1 | 23.7 µM (inactive) | 0.132 µM (active) | 17.4 µM (inactive) | 10.5 µM (inactive) | – | 22.5 µM (inactive) | 21.9 µM (inactive) | 16.2 µM (inactive) | 20 µM (inactive) | – | 15.5 µM (inactive) | 23.8 µM (inactive) | – | – | 39.8 µM (inactive) | 29.4 µM (inactive) | 29.8 µM (inactive) | – | 44 µM (inactive) | 40.8 µM (inactive)
8 | CCOC(=O)/C=C(\N=P(c1ccccc1)(c1ccccc1)c1ccccc1)C(F)(F)C(F)(F)C(F)(F)C(F)(F)C(F)(F)F | > 100 µM (inactive) | > 100 µM (inactive) | > 100 µM (inactive) | > 100 µM (inactive) | > 100 µM (inactive) | > 100 µM (inactive) | > 100 µM (inactive) | – | > 100 µM (inactive) | > 100 µM (inactive) | > 100 µM (inactive) | > 100 µM (inactive) | > 100 µM (inactive) | > 100 µM (inactive) | > 100 µM (inactive) | > 100 µM (inactive) | > 100 µM (inactive) | > 100 µM (inactive) | 0.0675 µM (active) | > 100 µM (inactive)
9 | CCOC(=O)CCC(NC(=O)OCc1ccccc1)C(=O)NC(CCC(=O)OCC)C(=O)NC(CCC(=O)OCC)C(=O)NC(CCC(=O)OCC)C(=O)NC(CCC(=O)OCC)C(=O)NC(CCC(=O)OCC)C(=O)NC(CCC(=O)OCC)C(=O)OCC (centres undefined) | > 100 µM (inactive) | 72.9 µM (inactive) | > 100 µM (inactive) | > 100 µM (inactive) | > 100 µM (inactive) | > 100 µM (inactive) | > 100 µM (inactive) | 43.5 µM (inactive) | – | > 100 µM (inactive) | > 100 µM (inactive) | > 100 µM (inactive) | – | > 100 µM (inactive) | > 100 µM (inactive) | 40.5 µM (inactive) | > 100 µM (inactive) | > 100 µM (inactive) | 84.9 µM (inactive) | > 100 µM (inactive)
10 | O=C(O)CC(Cc1ccc2c(c1)OCO2)C(=O)O (centres undefined) | – | 56.2 µM (inactive) | > 100 µM (inactive) | > 100 µM (inactive) | > 100 µM (inactive) | > 100 µM (inactive) | > 100 µM (inactive) | > 100 µM (inactive) | > 100 µM (inactive) | > 100 µM (inactive) | > 100 µM (inactive) | > 100 µM (inactive) | > 100 µM (inactive) | > 100 µM (inactive) | > 100 µM (inactive) | > 100 µM (inactive) | > 100 µM (inactive) | > 100 µM (inactive) | > 100 µM (inactive) | > 100 µM (inactive)
11 | CC1=C(C(=O)OCCO[N+](=O)[O-])C(c2ccccc2C(F)(F)F)C(C(=O)OC(C)C)=C(C)N1 (centres undefined) | 11.4 µM (inactive) | 27.3 µM (inactive) | 14.2 µM (inactive) | 3.94 µM (inactive) | 13.9 µM (inactive) | 19.6 µM (inactive) | 10.7 µM (inactive) | 16.9 µM (inactive) | 14.3 µM (inactive) | 12.7 µM (inactive) | 3.36 µM (inactive) | 5.12 µM (inactive) | 17.3 µM (inactive) | 16.8 µM (inactive) | 18.2 µM (inactive) | – | 19.8 µM (inactive) | 11.2 µM (inactive) | 24.1 µM (inactive) | 39.4 µM (inactive)
12 | CN(C)Cc1cc(/C=C/C(=O)c2ccc(Cl)c(Cl)c2)cc(CN(C)C)c1O | 9.02 µM (inactive) | 5.02 µM (inactive) | 10.8 µM (inactive) | 25.2 µM (inactive) | – | – | 10.4 µM (inactive) | – | 19 µM (inactive) | – | 12.4 µM (inactive) | 13.4 µM (inactive) | 6.92 µM (inactive) | 13.5 µM (inactive) | 15 µM (inactive) | 9.12 µM (inactive) | 11 µM (inactive) | 12.1 µM (inactive) | 16.1 µM (inactive) | 13.9 µM (inactive)
13 | C/C(=C/C(=O)N(C)c1ccccc1Cl)O[Si](C(C)C)(C(C)C)C(C)C | 40.7 µM (inactive) | – | 17.6 µM (inactive) | – | 18.7 µM (inactive) | 24.7 µM (inactive) | 26.9 µM (inactive) | 15.4 µM (inactive) | 19.9 µM (inactive) | 61.2 µM (inactive) | – | 24.8 µM (inactive) | 21.3 µM (inactive) | 17 µM (inactive) | 23.7 µM (inactive) | 29.4 µM (inactive) | 31.3 µM (inactive) | 24.8 µM (inactive) | > 10 µM (inactive) | 32.1 µM (inactive)
14 | CS(=O)(=O)OCC(CCl)(CCl)CCl | – | > 100 µM (inactive) | > 100 µM (inactive) | > 100 µM (inactive) | > 100 µM (inactive) | > 100 µM (inactive) | > 100 µM (inactive) | > 100 µM (inactive) | > 100 µM (inactive) | > 100 µM (inactive) | > 100 µM (inactive) | – | – | > 100 µM (inactive) | > 100 µM (inactive) | > 100 µM (inactive) | > 100 µM (inactive) | > 100 µM (inactive) | > 100 µM (inactive) | > 100 µM (inactive)
15 | CCCCN(CCCC)C1=Nc2ccccc2-n2c(nnc2C(=O)OCC)C1 | 49.9 µM (inactive) | 43.5 µM (inactive) | 22 µM (inactive) | 16.5 µM (inactive) | 38.8 µM (inactive) | 74.6 µM (inactive) | 22.7 µM (inactive) | > 100 µM (inactive) | 39.2 µM (inactive) | 61.8 µM (inactive) | 17.4 µM (inactive) | 26.1 µM (inactive) | 44.4 µM (inactive) | 51.1 µM (inactive) | 91.2 µM (inactive) | 33.1 µM (inactive) | 10.4 µM (inactive) | 17.4 µM (inactive) | – | 75.3 µM (inactive)
